The source of these data is US11807693B2 (priority 2014, dated 2023).

This assay addresses T1, rat APJ receptor (Rattus norvegicus, UniProt Q9JHG3).
T1 construct: expressed in transfected cells
T1 sequence (Q9JHG3 1-377): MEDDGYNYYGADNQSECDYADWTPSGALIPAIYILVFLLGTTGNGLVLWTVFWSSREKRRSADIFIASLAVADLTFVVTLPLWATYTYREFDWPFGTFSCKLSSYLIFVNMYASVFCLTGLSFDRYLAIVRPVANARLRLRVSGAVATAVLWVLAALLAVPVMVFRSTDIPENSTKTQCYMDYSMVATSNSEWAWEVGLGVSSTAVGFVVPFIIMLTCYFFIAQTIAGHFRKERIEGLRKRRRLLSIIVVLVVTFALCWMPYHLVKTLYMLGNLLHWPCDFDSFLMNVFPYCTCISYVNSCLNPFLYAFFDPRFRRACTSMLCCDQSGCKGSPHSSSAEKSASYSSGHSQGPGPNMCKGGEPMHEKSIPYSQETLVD
In words: [35S] GTPγS assay, rat APJ receptor. The assay is classed as biochemical. As for the experimental part:
The membranes were incubated with modified peptides in the assay buffer. […] Bound [^35S] GTPγS was separated from free radiolabel by filtration. The filter bound radioactivity was determined by liquid scintillation counting.

[1] abbreviates: Table 16, read-out: EC50 Rat APJ Receptor.
The mark [2] stands for this setting: rat APJ receptor, read-out: EC50 Rat APJ Receptor.

Read-outs that look alike come from different tables or passages of the source. Starred links: 1 amine or outer side, 2 acyl side, 3 side chain; linkers in the order of their positions; H or OH if unused. Non-standard residues stand in square brackets, D forms with d. Residues, ends and D or L forms follow the SMILES beside them. *: point of attachment. dBip = N[C@H](Cc1ccc(-c2ccccc2)cc1)C(=O)O; Oic = O=C(O)[C@@H]1C[C@@H]2CCCC[C@@H]2N1; Phe(4-Cl) = N[C@@H](Cc1ccc(Cl)cc1)C(=O)O; Phe(4-I) = N[C@@H](Cc1ccc(I)cc1)C(=O)O; γGlu = O=C(O)[C@H](CCC(=O)[*:2])N[*:1]; 2Nal = N[C@@H](Cc1ccc2ccccc2c1)C(=O)O; NMehArg = CN[C@@H](CCCCNC(=N)N)C(=O)O; d(β3hF) = N[C@@H](CC(=O)O)Cc1ccccc1; NMeR = CN[C@@H](CCCNC(=N)N)C(=O)O; Palmitoyl = CCCCCCCCCCCCCCCC(=O)*; Tridecanoyl = CCCCCCCCCCCCC(=O)*; hArg = N=C(N)NCCCC[C@H](N)C(=O)O; Cha = N[C@@H](CC1CCCCC1)C(=O)O; NMeL = CN[C@@H](CC(C)C)C(=O)O; Tle = CC(C)(C)[C@H](N)C(=O)O; Pip = O=C(O)[C@@H]1CCCCN1; Nle = CCCC[C@H](N)C(=O)O; Orn = NCCC[C@H](N)C(=O)O; Pra = C#CC[C@H](N)C(=O)O; Deg = CCC(N)(CC)C(=O)O; AEEA = NCCOCCOCC(=O)O

For the compound `CCCCCCCCCCCCC(=O)N[C@@H](CCC(=O)NCCOCCOCC(=O)NCCOCCOCC(=O)N[C@@H](CCC(N)=O)C(=O)N[C@H](CCCNC(=N)N)C(=O)N1CCC[C@H]1C(=O)N(C)[C@@H](CCCCNC(=N)N)C(=O)N[C@@H](CC1CCCCC1)C(=O)N[C@@H](CO)C(=O)N[C@@H](Cc1c[nH]cn1)C(=O)N[C@@H](CCCCN)C(=O)NCC(=O)N1CCC[C@H]1C(=O)N[C@@H](CCCC)C(=O)N1CCC[C@H]1C(=O)N[C@@H](Cc1ccc(Cl)cc1)C(=O)O)C(=O)O` [compound 435] ({Tridecanoyl-γGlu-AEEA-AEEA}-Q[dR]P[NMehArg][Cha]SHKGP[Nle]P[Phe(4-Cl)]-OH), the EC50 under setting [1] worked out at 1.15 nM.
Still for that read-out and setting: to `CCCCCCCCCCCCC(=O)N[C@@H](CCC(=O)NCCOCCOCC(=O)NCCOCCOCC(=O)N[C@@H](CCC(N)=O)C(=O)N[C@@H](CCCNC(=N)N)C(=O)N1CCC[C@H]1C(=O)N[C@@H](CCC(N)=O)C(=O)N[C@@H](CC(C)C)C(=O)N[C@@H](CO)C(=O)N[C@@H](Cc1c[nH]cn1)C(=O)N[C@@H](CCCCN)C(=O)NCC(=O)N1CCC[C@H]1C(=O)N[C@@H](CCCC)C(=O)N1CCC[C@H]1C(=O)N[C@@H](Cc1ccc(Cl)cc1)C(=O)O)C(=O)O` [compound 465] ({Tridecanoyl-γGlu-AEEA-AEEA}-QRPQLSHKGP[Nle]P[Phe(4-Cl)]-OH) belongs 0.175 nM.
On the same count and under the same terms, the result for `C#CC[C@H](NC(=O)[C@H](CC(C)C)NC(=O)[C@H](CCCNC(=N)N)N(C)C(=O)[C@@H]1CCCN1C(=O)[C@H](CCCNC(=N)N)NC(=O)[C@H](CCC(N)=O)NC(=O)COCCOCCNC(=O)COCCOCCNC(=O)CC[C@H](NC(=O)CCCCCCCCCCCC)C(=O)O)C(=O)N[C@@H](Cc1c[nH]cn1)C(=O)N[C@@H](CCCCN)C(=O)NCC(=O)N1CCC[C@H]1C(=O)N[C@@H](CCCC)C(=O)N1CCC[C@H]1C(=O)N[C@@H](Cc1ccc(Cl)cc1)C(=O)O` [compound 450] ({Tridecanoyl-γGlu-AEEA-AEEA}-QRP[NMeR]L[Pra]HKGP[Nle]P[Phe(4-Cl)]-OH) reads 0.313 nM.
The same measure, in the same setting: the result for `CCCCCCCCCCCCC(=O)N[C@@H](CCC(=O)NCCOCCOCC(=O)NCCOCCOCC(=O)N[C@H](CCC(N)=O)C(=O)N[C@@H](CCCCNC(=N)N)C(=O)N1CCC[C@H]1C(=O)N[C@H](CCCNC(=N)N)C(=O)N[C@H](C(=O)N[C@@H](CO)C(=O)N[C@@H](Cc1c[nH]cn1)C(=O)N[C@@H](CCCCN)C(=O)NCC(=O)N1[C@H](C(=O)N[C@@H](CCCC)C(=O)N2CCC[C@H]2C(=O)N[C@@H](Cc2ccc(Cl)cc2)C(=O)O)C[C@@H]2CCCC[C@@H]21)C(C)(C)C)C(=O)O` [compound 433] ({Tridecanoyl-γGlu-AEEA-AEEA}-[dQ][hArg]P[dR][Tle]SHKG[Oic][Nle]P[Phe(4-Cl)]-OH) reads 19.8 nM.
As to `CCCCCCCCCCCCC(=O)N[C@@H](CCC(=O)NCCOCCOCC(=O)NCCOCCOCC(=O)N[C@@H](CCCCNC(=N)N)C(=O)N[C@H](CCCNC(=N)N)C(=O)N[C@@H](CCC(N)=O)C(=O)N[C@@H](CCCCNC(=N)N)C(=O)N1CCC[C@H]1C(=O)N[C@H](CCCNC(=N)N)C(=O)N(C)[C@@H](CC(C)C)C(=O)N[C@@H](C)C(=O)N[C@@H](Cc1c[nH]cn1)C(=O)N[C@@H](CCCC)C(=O)NCC(=O)N1[C@H](C(=O)N[C@@H](Cc2ccc(I)cc2)C(=O)N2CCC[C@H]2C(=O)N[C@H](Cc2ccc(-c3ccccc3)cc2)C(=O)O)C[C@@H]2CCCC[C@@H]21)C(=O)O` [compound 318] ({Tridecanoyl-γGlu-AEEA-AEEA}-[hArg][dR]Q[hArg]P[dR][NMeL]AH[Nle]G[Oic][Phe(4-I)]P[dBip]-OH), under setting [2], the EC50 was 46 nM.
As to `CCCCCC(=O)N[C@@H](CCC(=O)NCCOCCOCC(=O)NCCOCCOCC(=O)N[C@@H](CCC(N)=O)C(=O)N[C@@H](CCCNC(=N)N)C(=O)N1CCC[C@H]1C(=O)N(C)[C@@H](CCCNC(=N)N)C(=O)N[C@@H](CC(C)C)C(=O)N[C@@H](CO)C(=O)N[C@@H](Cc1c[nH]cn1)C(=O)N[C@@H](CCCCN)C(=O)NCC(=O)N1CCC[C@H]1C(=O)N[C@@H](CCCC)C(=O)N1CCC[C@H]1C(=O)N[C@@H](Cc1ccc(Cl)cc1)C(=O)O)C(=O)O` [compound 492], the EC50 under setting [2] amounted to 0.147 nM.
Turning to `CCCCCCCCCCCCC(=O)N[C@@H](CCC(=O)NCCOCCOCC(=O)NCCOCCOCC(=O)N[C@@H](CCC(N)=O)C(=O)N[C@@H](CCCNC(=N)N)C(=O)N1CCC[C@H]1C(=O)N(C)[C@@H](CCCNC(=N)N)C(=O)N[C@@H](CC(C)C)C(=O)N[C@@H](CO)C(=O)N[C@@H](Cc1c[nH]cn1)C(=O)N[C@@H](CCCCN)C(=O)NCC(=O)N1CCC[C@H]1C(=O)N[C@@H](CCCC)C(=O)N[C@@H](Cc1ccc2ccccc2c1)C(=O)O)C(=O)O` [compound 403] ({Tridecanoyl-γGlu-AEEA-AEEA}-QRP[NMeR]LSHKGP[Nle][2Nal]-OH), under setting [1], the EC50 was determined as 8.1 nM.
As to `CCCCCCCCCCCCCCCC(=O)N[C@@H](CCC(=O)NCCOCCOCC(=O)NCCOCCOCC(=O)N[C@H](CCC(N)=O)C(=O)N[C@@H](CCCNC(=N)N)C(=O)N1CCC[C@H]1C(=O)N(C)[C@@H](CCCNC(=N)N)C(=O)N[C@@H](CC1CCCCC1)C(=O)N[C@@H](CO)C(=O)N[C@@H](Cc1c[nH]cn1)C(=O)N[C@@H](CCCCN)C(=O)NCC(=O)N1CCCC[C@H]1C(=O)N[C@@H](CCCC)C(=O)N[C@@H](CC(=O)O)Cc1ccccc1)C(=O)O` [compound 574] ({Palmitoyl-γGlu-AEEA-AEEA}-[dQ]RP[NMeR][Cha]SHKG[Pip][Nle][d(β3hF)]-OH), the EC50 under setting [2] amounted to 2.83 nM.
On the same count and under the same terms, to `CCCCCCCCCCCCC(=O)N[C@@H](CCC(=O)NCCOCCOCC(=O)NCCOCCOCC(=O)N[C@@H](CCCCNC(=N)N)C(=O)N[C@H](CCCNC(=N)N)C(=O)N[C@@H](CCC(N)=O)C(=O)N[C@@H](CCCC)C(=O)N1CCC[C@H]1C(=O)N[C@H](CCCNC(=N)N)C(=O)N(C)[C@@H](CC(C)C)C(=O)N[C@@H](C)C(=O)N[C@@H](C)C(=O)N[C@@H](CCCCN)C(=O)NCC(=O)N1[C@H](C(=O)N[C@@H](Cc2ccc(I)cc2)C(=O)N2CCC[C@H]2C(=O)N[C@H](Cc2ccc(-c3ccccc3)cc2)C(=O)O)C[C@@H]2CCCC[C@@H]21)C(=O)O` [compound 334] ({Tridecanoyl-γGlu-AEEA-AEEA}-[hArg][dR]Q[Nle]P[dR][NMeL]AAKG[Oic][Phe(4-I)]P[dBip]-OH) belongs 44.7 nM; to `CCCC[C@H](NC(=O)[C@@H]1CCCN1C(=O)CNC(=O)[C@H](CCCCN)NC(=O)[C@H](Cc1c[nH]cn1)NC(=O)[C@H](CO)NC(=O)[C@H](CC(C)C)N(C)C(=O)[C@H](CCCNC(=N)N)N(C)C(=O)[C@@H]1CCCN1C(=O)[C@H](CCCNC(=N)N)NC(=O)[C@H](CCC(N)=O)NC(=O)[C@H](CCCNC(=N)N)NC(C)=O)C(=O)N1CCC[C@H]1C(=O)N[C@@H](Cc1ccc(Cl)cc1)C(=O)O` [compound 67] (Ac-RQRP[NMeR][NMeL]SHKGP[Nle]P[Phe(4-Cl)]-OH), 1.4 nM; to `CCCCCCCCCC(=O)N[C@@H](CCC(=O)NCCOCCOCC(=O)NCCOCCOCC(=O)N[C@@H](CCC(N)=O)C(=O)N[C@@H](CCCNC(=N)N)C(=O)N1CCC[C@H]1C(=O)N(C)[C@@H](CCCNC(=N)N)C(=O)N[C@@H](CC(C)C)C(=O)N[C@@H](CO)C(=O)N[C@@H](Cc1c[nH]cn1)C(=O)N[C@@H](CCCCN)C(=O)NCC(=O)N1CCC[C@H]1C(=O)N[C@@H](CCCC)C(=O)N1CCC[C@H]1C(=O)N[C@@H](Cc1ccc(Cl)cc1)C(=O)O)C(=O)O` [compound 494], 0.147 nM.
Take `CCCC[C@H](NC(=O)[C@@H]1CCCN1C(=O)CNC(=O)[C@H](CCCCN)NC(=O)[C@H](Cc1c[nH]cn1)NC(=O)[C@H](CO)NC(=O)[C@H](CC1CCCCC1)NC(=O)[C@H](CCCCNC(=N)N)NC(=O)[C@@H]1CCCN1C(=O)[C@H](CCCNC(=N)N)NC(=O)[C@H](CCC(N)=O)NC(=O)[C@H](CCCCNC(=N)N)NC(=O)[C@H](CCCCNC(=N)N)NC(=O)[C@H](Cc1ccccc1)NC(=O)[C@H](CCCN)NC(C)=O)C(=O)N[C@@H](Cc1ccc(Cl)cc1)C(=O)O` [compound 48] (Ac-[Orn]F[hArg][hArg]QRP[hArg][Cha]SHKGP[Nle][Phe(4-Cl)]-OH): the EC50 (read-out: EC50 Rat APJ Receptor) was found to be 0.486 nM.
In the case of `CCCCCCCCCCCCC(=O)N[C@@H](CCC(=O)NCCOCCOCC(=O)NCCOCCOCC(=O)NCCOCCOCC(=O)NCCOCCOCC(=O)NCCOCCOCC(=O)NCCOCCOCC(=O)N[C@@H](CCC(N)=O)C(=O)N[C@@H](CCCNC(=N)N)C(=O)N1CCC[C@H]1C(=O)N(C)[C@@H](CCCNC(=N)N)C(=O)N[C@@H](CC(C)C)C(=O)N[C@@H](CO)C(=O)N[C@@H](Cc1c[nH]cn1)C(=O)N[C@@H](CCCCN)C(=O)NCC(=O)N1CCC[C@H]1C(=O)N[C@@H](CCCC)C(=O)N1CCC[C@H]1C(=O)N[C@@H](Cc1ccc(Cl)cc1)C(=O)O)C(=O)O` [compound 398], the EC50 under setting [2] turned out to be 0.116 nM.
Still for that read-out and setting: the result for `CCCCCCCCCCCCC(=O)N[C@@H](CCC(=O)NCCOCCOCC(=O)NCCOCCOCC(=O)NC(CC)(CC)C(=O)N[C@@H](CCCCNC(=N)N)C(=O)N1CCC[C@H]1C(=O)N[C@H](CCCNC(=N)N)C(=O)N[C@@H](CC1CCCCC1)C(=O)N[C@@H](CO)C(=O)N[C@@H](Cc1c[nH]cn1)C(=O)N[C@@H](CCCCN)C(=O)NCC(=O)N1[C@H](C(=O)N[C@@H](CCCC)C(=O)N2CCC[C@H]2C(=O)N[C@@H](Cc2ccc(Cl)cc2)C(=O)O)C[C@@H]2CCCC[C@@H]21)C(=O)O` [compound 558] ({Tridecanoyl-γGlu-AEEA-AEEA}-[Deg][hArg]P[dR][Cha]SHKG[Oic][Nle]P[Phe(4-Cl)]-OH) reads 12.5 nM.
